Results from patent US20190083407A1, “CRYSTALLIZATION METHOD AND BIOAVAILABILITY” (priority 2015, published 2019).
Where two headings read alike, the source gives them in different places.

Key:
[1] = Aqueous solubility at room temperature; settings: for Aqueous solubility, mMol/L (complex): as complex
[2] = FDA Summary Basis of Approval; cited from earlier work
[3] = 72 hr dog study; cited from earlier work
[4] = cited from earlier work; for Mortality: solutions in capsules
[5] = Rat PK study: plasma concentrations of zoledronic acid from pure zoledronic acid and complexes delivered IV, oral gavage and ID; assay type: in vivo, Sprague-Dawley Rats
Protocol: These studies were conducted on rats and dogs as they are suitable animal models for zoledronic acid. This can be attributed to the fact that both animals have historically been used in the safety evaluation and PK screening studies and are recommended by appropriate regulatory agencies. […] Pure zoledronic acid and zoledronic acid complexes prepared by the methods in this invention were delivered to the rats and dogs through IV or oral routes. Additional tests included ID administration in rats and administration of enteric coated capsules in dogs. All compounds delivered were well tolerated by the animals with no adverse events or physical abnormalities noticed. […] USA. Some animals have surgical catheters (jugular vein and intraduodenum) were implanted to the animals prior to the studies. […] Surgical catheters (jugular vein) were implanted prior to the studies. […] Routes of Rat Dosing: Zoledronic acid and its complex formulations were administered through IV, oral and ID. […] The dose of each rat was calculated on a per rat basis (not on an average weight of all the rats in the lot). • ii. Oral gavage administration: solid suspensions were administered. The dose of each rat was calculated on a per rat basis (not on an average weight of all the rats in the lot). […] Duodenal cannula administration: solid suspensions were administered. The dose of each rat was calculated on a per rat basis (not on an average weight of all the rats in the lot). […] Groups: Two major groups of animals were selected for the study. • Group 1 consists of rat studies. […] Group I (IV Administration): Group Members, Designated IV Doses are Listed Below: [table] Group II (oral gavage): Group designations and oral doses are listed below: […] Group III (ID Administration): Group Designations and Oral Doses are Listed Below: [table] Rat blood sample collection, handling and analysis: […] Samples were thawed on the day of analysis and the amount of zoledronic acid in the samples was quantified by analyzed by LC/MS/MS method. Rat study: […]

NCCCCC(N)C(=O)O.O.O=P(O)(O)C(O)(Cn1ccnc1)P(=O)(O)O [ZA: DL-Lysine monohydrate]
Aqueous solubility, Conc. [1]: 13.9 mg/mL | Aqueous solubility, mMol/L (complex) [1]: 31.86 mmol/L

NCCCCC(N)C(=O)O.O.O.O=P(O)(O)C(O)(Cn1ccnc1)P(=O)(O)O [ZA: L-Lysine dihydrate]
Aqueous solubility, Conc. [1]: 8.22 mg/mL | Aqueous solubility, mMol/L (complex) [1]: 18.09 mmol/L

O=P(O)(O)C(O)(Cn1ccnc1)P(=O)(O)O [Zoledronic acid, (1-hydroxy-2-imidazol-1-yl-1-phosphono-ethyl)phosphonic acid]
Oral bioavailability [2]: less than 1% | AUC [3]: 2217 ng·h/mL | Mortality (dogs) ([4]; 10 mg/kg administered directly to the stomach): ⅓ | Mortality (dogs) ([4]; 25 mg/kg, same formulation): 3/3 | AUC 0-24 hr ([4]; dogs, 10 mg/kg administered directly to the stomach): 1254 ng·h/mL | AUC 0-24 ([4]; dogs, 25 mg/kg, same formulation): 7319 ng·h/mL | Mortality ([4]; dogs, 10 mg/kg/day, one formulation): 30% | Mortality ([4]; dogs, another formulation, 25 mg/Kg): 100%

O=P([O-])(O)C(O)(Cn1ccnc1)P(=O)([O-])O.[Na+].[Na+] [disodium zoledronate salt]
AUC [3]: 4073 ng·h/mL

Zoledronic, nicotinamide, and water complex
Average plasma concentration of 3 rats ([5]; ID 5 mg/kg zoledronic acid equivalent, PEG 400, 8 hour): 0.00 ng/mL | Average plasma concentration of 3 rats ([5]; ID 5 mg/kg zoledronic acid equivalent, PEG 400, 24 hour): 0.00 ng/mL | Average plasma concentration of 3 rats ([5]; PO 5 mg/kg zoledronic acid equivalent, PEG 400, 24 hour): 0.00 ng/mL
